Key:
[1] = biological target: T1, full-length MALT1 protein His-MALT1(1-824) (Homo sapiens (Human), UniProt Q9UDY8); assay: MALT1 protease assay, Assay 1 (2 nM MALT1, Ac-LRSR-AMC substrate); type: biochemical; details: 2 nM MALT1, 50 μM Ac-LRSR-AMC, 2 h pre-incubation, 8 hr incubation at RT
Protocol: MALT1 protease activity was assessed in an in vitro assay using a tetrapeptide as substrate and full-length MALT1 protein His-MALT1(1-824) purified from baculovirus-infected insect cells.
The final assay buffer includes 1 nM (Assay 2) or 2 nM (Assay 1) of MALT1 full-length protein, 50 μM Ac-LRSR-AMC substrate, 50 mM Tris pH 7.5, 600 mM Sodium Citrate, 1 mM DTT, 1 mM EDTA, and 0.05% BSA in 384-well plate format using black microtiter square well plates (Optiplate 384-F, Perkin Elmer).
Test compounds were dissolved in 100% DMSO at stock of 10 mM, with final DMSO concentration 0.1%. Test compounds were pre-incubated with MALT1 protein for 2 h at room temperature. Substrate was added after the pre-incubation and fluorescence signal was measured using Envision at excitation 355 nm and emission 460 nm after 8 hr incubation at RT. Increase in the assay signal was linear over this period and proportional with increase in the enzyme content.
The fluorescence units were transformed to percentage of remaining activity by using the high control (HC, median of fluorescence signal from wells containing MALT1 protein, substrate, and DMSO) and low control (LC, median of fluorescence signal from wells with substrate only) with the formula below: […]
IC50 and Hill coefficient were obtained using Graph Pad Prism (Graph Pad software, Inc, USA) with non-linear regression analysis.

[2] = biological target: T1, full-length MALT1 protein His-MALT1(1-824); assay: MALT1 protease assay, Assay 2 (1 nM MALT1, Ac-LRSR-AMC substrate); type: biochemical; details: 1 nM MALT1, 50 μM Ac-LRSR-AMC, 2 h pre-incubation, 8 hr incubation at RT
Summary of the method: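 His-MALT1(1-824) from baculovirus-infected insect cells at 1 nM, preincubated 2 h at RT with compound (0.1% DMSO), then 50 μM Ac-LRSR-AMC in 50 mM Tris pH 7.5, 600 mM sodium citrate, 1 mM DTT, 1 mM EDTA, 0.05% BSA. Fluorescence (ex 355/em 460 nm) after 8 h at RT, normalized to enzyme and substrate-only controls. IC50 and Hill coefficient by non-linear regression.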

[3] = tested on: IL10 secretion, OCI-LY10 cells; assay: Human IL10 secretion assay, Assay 1 (HTRF); type: cell-based; details: 24 h incubation, read-out: IL-10 Secretion IC50 [nM] Assay 1
Summary of the method: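 OCI-LY10 cells (3×10^5/well, IMEM with 20% FBS) were treated with 3-fold serial compound dilutions from a 10 mM stock, 0.1% DMSO final, for 24 h. Secreted IL10 in medium was quantified by HTRF, normalised to DMSO-treated and no-cell controls, and IC50 (nM) derived by 4-parameter fit.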

T1 sequence (Q9UDY8 whole entry): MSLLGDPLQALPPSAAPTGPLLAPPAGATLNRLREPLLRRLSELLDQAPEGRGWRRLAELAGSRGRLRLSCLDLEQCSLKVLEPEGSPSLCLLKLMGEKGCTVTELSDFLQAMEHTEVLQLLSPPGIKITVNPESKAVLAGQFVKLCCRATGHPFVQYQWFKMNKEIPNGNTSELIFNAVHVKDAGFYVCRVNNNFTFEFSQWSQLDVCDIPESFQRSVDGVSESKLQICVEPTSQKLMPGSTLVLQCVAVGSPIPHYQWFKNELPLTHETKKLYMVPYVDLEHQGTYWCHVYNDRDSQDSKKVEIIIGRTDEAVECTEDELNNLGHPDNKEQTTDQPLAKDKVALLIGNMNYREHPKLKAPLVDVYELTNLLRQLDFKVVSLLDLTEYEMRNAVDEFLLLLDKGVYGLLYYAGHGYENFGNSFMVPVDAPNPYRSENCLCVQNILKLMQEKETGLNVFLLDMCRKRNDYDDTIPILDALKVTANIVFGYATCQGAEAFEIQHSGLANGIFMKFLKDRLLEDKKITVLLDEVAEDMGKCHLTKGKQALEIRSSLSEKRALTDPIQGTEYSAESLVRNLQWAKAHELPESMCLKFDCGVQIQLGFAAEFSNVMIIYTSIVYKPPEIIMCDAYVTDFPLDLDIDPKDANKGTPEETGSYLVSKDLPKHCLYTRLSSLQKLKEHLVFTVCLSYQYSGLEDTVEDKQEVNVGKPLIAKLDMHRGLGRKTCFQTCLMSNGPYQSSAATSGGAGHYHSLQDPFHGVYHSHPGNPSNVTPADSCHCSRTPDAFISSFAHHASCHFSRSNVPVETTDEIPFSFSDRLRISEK

Structure (SMILES)	IC50 [1] [nM]	IC50 [2] [nM]	IC50 [3] [nM]
C[C@@]1(C(F)(F)F)CN(C(=O)Nc2cnc(C#N)c(Cl)c2)c2cnc3cc(Cl)nn3c21 [compound 42, (R)-2-chloro-N-(5-chloro-6-cyanopyridin-3-yl)-8-methyl-8-(trifluoromethyl)-7,8-dihydro-6H-pyrazolo[1,5-a]pyrrolo[2,3-e]pyrimidine-6-carboxamide]	10 to 100	10 to 100	100 to 1000
CC1(C)CCN(C(=O)Nc2cnc(-n3nccn3)c(Cl)c2)c2ccc3cc(Cl)nn3c21 [compound 9, 2-chloro-N-(5-chloro-6-(2H-1,2,3-triazol-2-yl)pyridin-3-yl)-9,9-dimethyl-8,9-dihydropyrazolo[1,5-a][1,5]naphthyridine-6(7H)-carboxamide]	10 to 100		≥ 1000
Cc1cc2ncc3c(n2n1)C(C)(C)CCN3C(=O)Nc1cnc(-n2nccn2)c(Cl)c1 [compound 8, N-(5-chloro-6-(2H-1,2,3-triazol-2-yl)pyridin-3-yl)-2,9,9-trimethyl-8,9-dihydropyrazolo[1,5-a]pyrido[2,3-e]pyrimidine-6(7H)-carboxamide]	10 to 100		100 to 1000
Cc1cc(NC(=O)N2C[C@@](C)(C(F)(F)F)c3c2cnc2cc(Cl)nn32)cnc1-n1ccnn1 [compound 30, (R)-2-chloro-8-methyl-N-(5-methyl-6-(1H-1,2,3-triazol-1-yl)pyridin-3-yl)-8-(trifluoromethyl)-7,8-dihydro-6H-pyrazolo[1,5-a]pyrrolo[2,3-e]pyrimidine-6-carboxamide]	10 to 100		
C[C@@]1(C(F)(F)F)CN(C(=O)Nc2cnc(N3CCCC3)c(Cl)c2)c2cnc3cc(Cl)nn3c21 [compound 23, (R)-2-chloro-N-(5-chloro-6-(pyrrolidin-1-yl)pyridin-3-yl)-8-methyl-8-(trifluoromethyl)-7,8-dihydro-6H-pyrazolo[1,5-a]pyrrolo[2,3-e]pyrimidine-6-carboxamide]	10 to 100		
COc1nc(-n2nccn2)c(Cl)cc1NC(=O)N1C[C@@](C)(C(F)(F)F)c2c1cnc1cc(Cl)nn21 [compound 52, (R)-2-chloro-N-(5-chloro-2-methoxy-6-(2H-1,2,3-triazol-2-yl)pyridin-3-yl)-8-methyl-8-(trifluoromethyl)-7,8-dihydro-6H-pyrazolo[1,5-a]pyrrolo[2,3-e]pyrimidine-6-carboxamide]	< 10		10 to 100
C[C@@]1(C(F)(F)F)CN(C(=O)Nc2cnc(CO)c(Cl)c2)c2cnc3cc(Cl)nn3c21 [compound 43, (R)-2-chloro-N-(5-chloro-6-(hydroxymethyl)pyridin-3-yl)-8-methyl-8-(trifluoromethyl)-7,8-dihydro-6H-pyrazolo[1,5-a]pyrrolo[2,3-e]pyrimidine-6-carboxamide]	10 to 100		100 to 1000
CC1(C(F)(F)F)CN(C(=O)Nc2cnc(-n3nccn3)c(Cl)c2)c2cnc3cc(C#N)nn3c21 (stereo not shown) [compound 17, N-[5-chloro-6-(triazol-2-yl)-3-pyridyl]-11-cyano-3-methyl-3-(trifluoromethyl)-1,5,8,12-tetrazatricyclo[7.3.0.02,6]dodeca-2(6),7,9,11-tetraene-5-carboxamide]	10 to 100		
Cn1cc(-c2ncc(NC(=O)N3C[C@@](C)(C(F)(F)F)c4c3cnc3cc(Cl)nn43)cc2Cl)cn1 [compound 20, (R)-2-chloro-N-(5-chloro-6-(1-methyl-1H-pyrazol-4-yl)pyridin-3-yl)-8-methyl-8-(trifluoromethyl)-7,8-dihydro-6H-pyrazolo[1,5-a]pyrrolo[2,3-e]pyrimidine-6-carboxamide]	10 to 100		100 to 1000
C[C@@]1(C(F)(F)F)CN(C(=O)NC2CCC(F)(F)CC2)c2cnc3cc(Cl)nn3c21 [compound 37, (R)-2-chloro-N-(4,4-difluorocyclohexyl)-8-methyl-8-(trifluoromethyl)-7,8-dihydro-6H-pyrazolo[1,5-a]pyrrolo[2,3-e]pyrimidine-6-carboxamide]	100 to 1000	100 to 1000	
C[C@@]1(C(F)(F)F)CN(C(=O)Nc2cnc(-n3cc(C#N)cn3)c(Cl)c2)c2cnc3cc(Cl)nn3c21 [compound 22, (R)-2-chloro-N-(5-chloro-6-(4-cyano-1H-pyrazol-1-yl)pyridin-3-yl)-8-methyl-8-(trifluoromethyl)-7,8-dihydro-6H-pyrazolo[1,5-a]pyrrolo[2,3-e]pyrimidine-6-carboxamide]	10 to 100		

From patent US20240018157A1, “CYCLIC COMPOUNDS AND METHODS OF USING SAME” (Schrödinger, Inc., priority 2019, published 2024)
